This note sets out measurements from patent publication US11795177B2, “Substituted quinoline analogs as aldehyde dehydrogenase 1A1 (ALDH1A1) inhibitors” (THE UNITED STATES OF AMERICA, AS REPRESENTED BY THE …, priority 2017, dated 2023).

The assay deals with MIA PaCa-2 cells. As to the kind of experiment: MIA PaCa2 cell-based assay (1,536-well high-content imaging ALDEFLUOR assay). The arrangement: species or system human. To be noted: Homo sapiens, 0.5 h, ALDEFLUOR BAAA substrate 500 nM, 30 minutes. On the procedure: Example 359. MIA PaCa2 Cell-Based Assay (In Vitro Assay)
1,536-Well High-Content Imaging ALDEFLUOR Assay
The ALDEFLUOR™ kit was purchased from […] Technologies (Vancouver, Canada; #01700). MIA PaCa-2 cells (5 μL; 1,000 cells/well) were dispensed into black, optical quality (cyclic olefin copolymer) clear bottom, medium binding TC treated 1,536-well plates (Aurora Microplates, Whitefish Mont.) using a Multidrop Combi dispenser (ThermoFisher) and incubated overnight (37° C., 5% CO2, 85% RH). Media (RPMI 1640 (Life Technologies, Carlsbad, Calif.), supplemented with 2 mM L-Glutamine (Life Technologies), 10% HyClone™ fetal bovine serum (FBS, GE Healthcare, Piscataway, N.J.) and 100 U/mL penicillin and 100 μg/mL streptomycin (Life Technologies)) was subsequently removed by centrifuging plates upside down using a plate adaptor to collect media. A solution of BAAA substrate ([…] Technologies) and Hoechst 33342 (ThermoFisher, final concentrations of 500 nM and 0.5 nM, respectively) in ALDEFLUOR™ buffer ([…] Technologies #01700) was dispensed onto cells using a Multidrop Combi followed by immediate transfer (23 nL) of compound or control solutions using a Wako Pin-tool (final percentage of DMSO in the cell plates was 0.5%). Unless otherwise noted, all compounds were assayed as 16-point dilutions spanning a final concentration range of 1.4 nM to 47.8 μM. The neutral and positive assay controls were DMSO and DEAB (4.6 μM), respectively. Cells were incubated for 30 minutes or the indicated amount of time at 37° C., 5% CO2, 85% RH to allow the conversion of BAAA into BAA. Supernatant was subsequently removed by centrifugation as described above, then ALDEFLUOR™ buffer (3 μl) was dispensed by Multidrop Combi before imaging on an IN Cell 2200 (GE Healthcare).
The above assay was modified for an online robotic screening system. After cell plating and overnight incubation, 4 μL of media were removed using a 64-tip metal aspirator head on a Wako aspirator station, leaving 1 μL remaining in the well, followed by a 4 μL dispense of BAAA and Hoechst 33342 in ALDEFLUOR™ buffer, for a final concentration of 500 nM and 0.5 nM, respectively Immediately following the dispense, 23 nL of compound or control solutions were transferred using a Wako Pin-tool. Cells were incubated for 30 minutes at 37° C., 5% CO2, 85% RH, followed by a 4 μL media removal using the Wako aspirator, and a subsequent 3 μL addition of ALDEFLUOR™ buffer. Plates were then immediately read on the IN Cell 2200 as described below.
Image Acquisition and Analysis
For images captured on the IN Cell 2200 widefield automated microscope, a 10×0.45 NA Plan Apo objective lens was used to capture the entire well of the 1,536-well plate using standard DAPI (390/18×, 432/48 m) and FITC (475/28×, 525/48 m) filter sets at 50 msec and 100 msec exposures, respectively. Images were subsequently analyzed using IN Cell Investigator v1.6.2 analysis software's canned Multi-Target Analysis algorithm (GE Healthcare). Hoechst stained nuclei were identified using top hat segmentation with a minimum area of 75 μm^2 and sensitivity of 93. BAA-retaining cells captured via FITC channel, were identified using multiscale top hat segmentation with a minimum area of 100 μm^2 and a sensitivity setting of 16. […] Data were plotted using GraphPad Prism software (GraphPad, San Diego, Calif.).
Consider `O=C(c1cnc2ccccc2c1N1CCC2(CC1)OCCO2)N1CCN(C(=O)C2CC2)CC1` [Example 42, (4-(1,4-dioxa-8-azaspiro[4.5]decan-8-yl)quinolin-3-yl)(4-(cyclopropanecarbonyl)piperazin-1-yl)methanone], for which the half-inhibitory concentration (IC50) – broadly, the concentration needed to halve the response being measured – was more than 10 µM.
`O=C(c1cnc2ccc(Cl)cc2c1N1CCC2(CC1)OCCO2)N1CCN(C(=O)C2CC2)CC1` [Example 45, (6-chloro-4-(1,4-dioxa-8-azaspiro[4.5]decan-8-yl)quinolin-3-yl)(4-(cyclopropanecarbonyl)piperazin-1-yl)methanone] displayed a half-maximal inhibitory concentration (IC50) of 1 to 10 µM.
On to `COc1ccc2c(N3CCC4(CC3)OCCO4)c(C(=O)N3CCN(C(=O)C4CC4)CC3)cnc2c1` [Example 47, (4-(cyclopropanecarbonyl)piperazin-1-yl)(7-methoxy-4-(1,4-dioxa-8-azaspiro[4.5]decan-8-yl)quinolin-3-yl)methanone], for which the concentration for half-maximal inhibition (IC50) was in the range of 1 to 10 µM.
Under `COc1cc2ncc(C(=O)N3CCN(C(=O)C4CC4)CC3)c(N3CCC4(CC3)OCCO4)c2cc1OC` [Example 48, (4-(cyclopropanecarbonyl)piperazin-1-yl)(6,7-dimethoxy-4-(1,4-dioxa-8-azaspiro[4.5]decan-8-yl)quinolin-3-yl)methanone] stands 1 to 10 µM.
Then `COc1ccc2ncc(CN3CCN(C(=O)C4CC4)CC3)c(N3CCC4(CC3)OCCO4)c2c1` [Example 57, Cyclopropyl(4-((6-methoxy-4-(1,4-dioxa-8-azaspiro[4.5]decan-8-yl)quinolin-3-yl)methyl)piperazin-1-yl)methanone], with more than 10 µM.
Under `O=C(c1cnc2ccc(F)cc2c1N1CCC2(CC1)CC2)N1CCN(C(=O)C2CC2)CC1` [Example 59, (4-(cyclopropanecarbonyl)piperazin-1-yl)(6-fluoro-4-(6-azaspiro[2.5]octan-6-yl)quinolin-3-yl)methanone] stands more than 10 µM; under `O=C(c1cnc2ccc(F)cc2c1N1CCC2(CCCC2)CC1)N1CCN(C(=O)C2CC2)CC1` [Example 62, (4-(cyclopropanecarbonyl)piperazin-1-yl)(6-fluoro-4-(8-azaspiro[4.5]decan-8-yl)quinolin-3-yl)methanone], more than 10 µM; under `O=C(c1cnc2ccc(F)cc2c1N1CCC(F)(F)CC1)N1CCN(C(=O)C2CC2)CC1` [Example 63, (4-(cyclopropanecarbonyl)piperazin-1-yl)(4-(4,4-difluoropiperidin-1-yl)-6-fluoroquinolin-3-yl)methanone], more than 10 µM.
The compound `CC1(C#N)CCN(c2c(C(=O)N3CCN(C(=O)C4CC4)CC3)cnc3ccc(F)cc23)CC1` [Example 64, 1-(3-(4-(cyclopropanecarbonyl)piperazine-1-carbonyl)-6-fluoroquinolin-4-yl)-4-methylpiperidine-4-carbonitrile] showed a half-inhibitory concentration (IC50) of 1 to 10 µM.
Under `CC1(C)CCN(c2c(C(=O)N3CCN(C(=O)C4CC4)CC3)cnc3ccc(F)cc23)CC1` [Example 65, (4-(cyclopropanecarbonyl)piperazin-1-yl)(4-(4,4-dimethylpiperidin-1-yl)-6-fluoroquinolin-3-yl)methanone] stands 1 to 10 µM; under `O=C(c1cnc2ccc(F)cc2c1N1CCC2(CCCO2)CC1)N1CCN(C(=O)C2CC2)CC1` [Example 66, (4-(cyclopropanecarbonyl)piperazin-1-yl)(6-fluoro-4-(1-oxa-8-azaspiro[4.5]decan-8-yl)quinolin-3-yl)methanone], 1 to 10 µM; under `COc1ccc2ncc(C(=O)N3CCN(C(=O)C4CC4)CC3)c(N3CCC(=O)CC3)c2c1` [Example 67, 1-(3-(4-(cyclopropanecareonyl)piperazine-1-carbonyl)-6-methoxyquinolin-4-yl)piperidin-4-one], more than 10 µM.
Under `O=C(c1cnc2ccc(F)cc2c1N1CCCCCC1)N1CCN(C(=O)C2CC2)CC1` [Example 71, (4-(azepan-1-yl)-6-fluoroquinolin-3-yl)(4-(cyclopropanecarbonyl)piperazin-1-yl)methanone] stands 1 to 10 µM; under `O=C(c1cnc2ccc(F)cc2c1N1CCC(c2ccccc2)CC1)N1CCN(C(=O)C2CC2)CC1` [Example 72, (4-(cyclopropanecarbonyl)piperazin-1-yl)(6-fluoro-4-(4-phenylpiperidin-1-yl)quinolin-3-yl)methanone], more than 10 µM.
As to `Cc1cc(F)cc2c(N3CCC4(CC3)OCCO4)c(C(=O)N3CCN(C(=O)C4CC4)CC3)cnc12` [Example 73, (4-(cyclopropanecarbonyl)piperazin-1-yl)(6-fluoro-8-methyl-4-(1,4-dioxa-8-azaspiro[4.5]decan-8-yl)quinolin-3-yl)methanone], the IC50 was in the range of 1 to 10 µM.
Under `O=C(c1cnc2ccc(F)cc2c1N1CCC2(CCCCC2)CC1)N1CCN(C(=O)C2CC2)CC1` [Example 75, (4-(cyclopropanecarbonyl)piperazin-1-yl)(6-fluoro-4-(3-azaspiro[5.5]undecan-3-yl)quinolin-3-yl)methanone] stands 1 to 10 µM; under `O=C(c1cnc2ccc(F)cc2c1N1CCC(F)CC1)N1CCN(C(=O)C2CC2)CC1` [Example 76, (4-(cyclopropanecarbonyl)piperazin-1-yl)(6-fluoro-4-(4-fluoropiperidin-1-yl)quinolin-3-yl)methanone], more than 10 µM; under `CC1(C)CC=C(c2c(C(=O)N3CCN(C(=O)C4CC4)CC3)cnc3ccc(F)cc23)CC1` [Example 77, (4-(cyclopropanecarbonyl)piperazin-1-yl)(4-(4,4-dimethylcyclohex-1-en-1-yl)-6-fluoroquinolin-3-yl)methanone], less than 0.5 µM.
Turning to `O=C(c1cnc2c(F)cc(F)cc2c1N1CCC2(CC1)OCCO2)N1CCN(C(=O)C2CC2)CC1` [Example 78, (4-(cyclopropanecarbonyl)piperazin-1-yl)(6,8-difluoro-4-(1,4-dioxa-8-azaspiro[4.5]decan-8-yl)quinolin-3-yl)methanone], the IC50 fell in the range of 1 to 10 µM.
Then `O=C(c1cnc2ccc(F)cc2c1N1CCC2(CCCCC2)C1)N1CCN(C(=O)C2CC2)CC1` [Example 79, (4-(cyclopropanecarbonyl)piperazin-1-yl)(6-fluoro-4-(2-azaspiro[4.5]decan-2-yl)quinolin-3-yl)methanone], with more than 10 µM; and `O=C(c1cnc2ccc(F)cc2c1N1CC2(CCCCC2)C1)N1CCN(C(=O)C2CC2)CC1` [Example 80, (4-(cyclopropanecarbonyl)piperazin-1-yl)(6-fluoro-4-(2-azaspiro[3.5]nonan-2-yl)quinolin-3-yl)methanone], with more than 10 µM; and `CCC1(CC)CCN(c2c(C(=O)N3CCN(C(=O)C4CC4)CC3)cnc3ccc(F)cc23)CC1` [Example 81, (4-(cyclopropanecarbonyl)piperazin-1-yl)(4-(4,4-diethylpiperidin-1-yl)-6-fluoroquinolin-3-yl)methanone], with 1 to 10 µM.
Under `O=C(c1cnc2ccc(F)cc2c1N1CC2CCC(C2)C1)N1CCN(C(=O)C2CC2)CC1` [Example 82, (4-(3-azabicyclo[3.2.1]octan-3-yl)-6-fluoroquinolin-3-yl)(4-(cyclopropanecarbonyl)piperazin-1-yl)methanone] stands more than 10 µM; under `O=C(c1cnc2ccc(F)cc2c1N1C[C@H]2CCCC[C@H]2C1)N1CCN(C(=O)C2CC2)CC1` [Example 83, (4-(cyclopropanecarbonyl)piperazin-1-yl)(6-fluoro-4-((3aR*,7aS*)-hexahydro-1H-isoindol-2(3H)-yl)quinolin-3-yl)methanone], more than 10 µM; under `CC(C)(C)c1ccc(-c2c(C(=O)N3CCN(C(=O)C4CC4)CC3)cnc3ccc(F)cc23)cc1` [Example 84, (4-(4-(tert-butyl)phenyl)-6-fluoroquinolin-3-yl)(4-(cyclopropanecarbonyl)piperazin-1-yl)methanone], less than 0.5 µM.
